Tested on: 843126-344-R-J1-PDC complex spheroid viability
Experiment: Anticancer human tumor 843126-344-R-J1-PDC patient-derived melanoma cell line growth inhibition [POLQ]
Conditions: for IC50: curve of first compound; for viability, T/C: stronger effect = lower value
Protocol: Multicellular complex tumor spheroid response to Polymerase (POL) inhibitors (novobiocin, ART-558, RP6685) in combination with a variety of drugs and investigational agents in selected tumor cell lines
The POL inhibitors (novobiocin, ART-558, and RP6685) were evaluated both individually and in combination with standard of care and investigational anticancer small molecules within a complex spheroid model of solid tumors. . Complex spheroids include a stromal component modeled by human endothelial cells (HUVEC) and fibroblasts modeled by human mesenchymal stem cells (MSCs). The concentration ranges selected for each drug and investigational agent were based upon clinically achievable concentrations if the clinical Cmax of the agent was known.
Compounds. The drugs and investigational agents: novobiocin (NSC847541), ART-558 (NSC835418), RP-6685 (NSC848927), peposertib (NSC802822), ceralasertib (NSC780249), elimusertib (NSC800525), camonsertib (NSC841442), AZD-1390 (NSC803789), olaparib (NSC753686), talazoparib (NSC767125), rucaparib (NSC756644), sotorasib (NSC818433), MRTX-1133 (NSC836407), SN-38 (NSC673596), topotecan (NSC609699), epotoside (NSC141540), doxorubicin (NSC123127), gemcitabine (NSC613327), 5-fluorouracil (NSC19893), paclitaxel (NSC125973), vemurafenib (NSC761431), MSA-2 (NSC828583), SN-011 (NSC837082), adavosertib (NSC754352), prexasertib (NSC758257), carboplatin (NSC241240) and oxaliplatin (NSC266046), were obtained from the National Cancer Institute (NCI) Developmental Therapeutics Program Chemical Repository (21). The FDA-approved anticancer drug set is available from the Developmental Therapeutics Program at https://dtp.cancer.gov/organization/dscb/obtaining/. […] The stock solutions were prepared in dimethyl sulfoxide (DMSO, Sigma-Aldrich, St. Louis, MO, cat. D2650), except for the platinum compounds which were prepared in saline (Quality Biological, Gaithersburg, MD, cat. 114-055-101), at 800-fold the tested concentration and stored at -70 degrees C prior to their use. All drugs and investigational agents were tested over a range starting from a high concentration at or near the clinical Cmax and decreasing in half-log increments. If the clinical Cmax for an agent had not been determined, the highest concentration tested was 10 microM, except for SN-38, which was tested at a high concentration of 1 microM.
Cell Culture. All cells were maintained in an incubator at 37 degrees C and 5% CO2 with 95% humidity. The PDC lines were cultured according to standard operating procedures established by the NCI PDMR (https://pdmr.cancer.gov). Table 3 of the manuscript, lists the cell lines along with the number of the three cell types plated to form the mct-spheroids and media for tumor cell growth. After thawing, all PDC lines, except 997537-175-T-J1-PDC and 415267-285-R-J2-PDC, were cultured in Matrigel-coated flasks prepared with a working solution of 1X Ham's F-12 nutrient mix, without supplementation (Thermo Fisher Scientific, cat. 11765054), 100 U/mL penicillin-streptomycin (Thermo Fisher Scientific, cat. 15140122), and 2.5% Matrigel (Corning Inc., Corning, NY, cat. 354248) for the first three passages. The two PDC lines 997537-175-T-J1-PDC and 415267-285-R-J2-PDC were cultured on uncoated flasks. The 857933-349-R-J2-PDC line was cultured in 6C/Colon 1B media containing advanced DMEM/F-12 (Thermo Fisher Scientific, cat. 12634028), 10 mM HEPES (Thermo Fisher Scientific, cat. 15630080), 1X GlutaMAX supplement (Thermo Fisher Scientific, cat. 35050061), 0.1 mg/mL primocin (InvivoGen, San Diego, CA, cat. ant-pm-2), 10% defined fetal bovine serum, heat inactivated (HyClone Laboratories Inc., Logan, UT, cat. SH30070.03HI), 50% L-WRN conditioned media (ATCC, cat. CRL-3276), 1.25 mM N-Acetyl-L-cysteine (Sigma-Aldrich, cat. A9165), 10 mM nicotinamide (Sigma-Aldrich, cat. N0636), 1X B-27 supplement (Thermo Fisher Scientific, cat. 17504044), 1X N-2 supplement (Thermo Fisher Scientific, cat. […]

[1] = second compound 0.0316 µM, first compound 0.0316 µM
[2] = second compound 0.0316 µM, first compound 0.1 µM
[3] = second compound 0.0316 µM, first compound 0.316 µM
[4] = second compound 0.0316 µM, first compound 1 µM
[5] = second compound 0.0316 µM, first compound 3.16 µM
[6] = second compound 0.0316 µM, first compound 10 µM
[7] = second compound 0.1 µM, first compound 0.0316 µM
[8] = second compound 0.1 µM, first compound 0.1 µM
[9] = second compound 0.1 µM, first compound 0.316 µM
[10] = second compound 0.1 µM, first compound 1 µM
[11] = second compound 0.1 µM, first compound 3.16 µM
[12] = second compound 0.1 µM, first compound 10 µM
[13] = second compound 0.316 µM, first compound 0.0316 µM
[14] = second compound 0.316 µM, first compound 0.1 µM
[15] = second compound 0.316 µM, first compound 0.316 µM
[16] = second compound 0.316 µM, first compound 1 µM
[17] = second compound 0.316 µM, first compound 3.16 µM
[18] = second compound 0.316 µM, first compound 10 µM
[19] = second compound 1 µM, first compound 0.0316 µM
[20] = second compound 1 µM, first compound 0.1 µM
[21] = second compound 1 µM, first compound 0.316 µM
[22] = second compound 1 µM, first compound 1 µM
[23] = second compound 1 µM, first compound 3.16 µM
[24] = second compound 1 µM, first compound 10 µM
[25] = second compound 3.16 µM, first compound 0.0316 µM
[26] = second compound 3.16 µM, first compound 0.1 µM
[27] = second compound 3.16 µM, first compound 0.316 µM
[28] = second compound 3.16 µM, first compound 1 µM
[29] = second compound 3.16 µM, first compound 3.16 µM
[30] = second compound 3.16 µM, first compound 10 µM
[31] = second compound 10 µM, first compound 0.0316 µM
[32] = second compound 10 µM, first compound 0.1 µM
[33] = second compound 10 µM, first compound 0.316 µM
[34] = second compound 10 µM, first compound 1 µM
[35] = second compound 10 µM, first compound 3.16 µM
[36] = second compound 10 µM, first compound 10 µM
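For viability, T/C in this document: spheroids exposed to drugs for seven days before readout.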

C#Cc1c(F)ccc2cc(O)cc(-c3ncc4c(N5CC6CCC(C5)N6)nc(OCC56CCCN5CC(F)C6)nc4c3F)c12 (centres undefined) + COC1C(OC(N)=O)C(O)C(Oc2ccc3c(O)c(NC(=O)c4ccc(O)c(CC=C(C)C)c4)c(=O)oc3c2C)OC1(C)C
IC50 (second compound 0.0316 µM): > 10 µM | IC50 (second compound 0.1 µM): > 10 µM | IC50 (second compound 0.316 µM): > 10 µM | IC50 (second compound 1 µM): > 10 µM | IC50 (second compound 3.16 µM): > 10 µM | IC50 (second compound 10 µM): > 10 µM | viability, T/C [1]: 101% | viability, T/C [2]: 116% | viability, T/C [3]: 76.9% | viability, T/C [4]: 95.8% | viability, T/C [5]: 82.4% | viability, T/C [6]: 76% | viability, T/C [7]: 82% | viability, T/C [8]: 106% | viability, T/C [9]: 86.2% | viability, T/C [10]: 81.4% | viability, T/C [11]: 91.7% | viability, T/C [12]: 85.4% | viability, T/C [13]: 79.3% | viability, T/C [14]: 96.5% | viability, T/C [15]: 73.9% | viability, T/C [16]: 107% | viability, T/C [17]: 109% | viability, T/C [18]: 74.2% | viability, T/C [19]: 87.9% | viability, T/C [20]: 98.7% | viability, T/C [21]: 89.3% | viability, T/C [22]: 111% | viability, T/C [23]: 98.1% | viability, T/C [24]: 91.3% | viability, T/C [25]: 83.7% | viability, T/C [26]: 105% | viability, T/C [27]: 91.4% | viability, T/C [28]: 107% | viability, T/C [29]: 86.6% | viability, T/C [30]: 84% | viability, T/C [31]: 88.2% | viability, T/C [32]: 84.8% | viability, T/C [33]: 98.5% | viability, T/C [34]: 100% | viability, T/C [35]: 93.2% | viability, T/C [36]: 71.1%

CC(C)n1c(=O)n(C)c2cnc3cc(F)c(-c4ccc(OCCCN5CCCCC5)nc4)cc3c21 + COC1C(OC(N)=O)C(O)C(Oc2ccc3c(O)c(NC(=O)c4ccc(O)c(CC=C(C)C)c4)c(=O)oc3c2C)OC1(C)C
IC50 (second compound 0.0316 µM): > 10 µM | IC50 (second compound 0.1 µM): > 10 µM | IC50 (second compound 0.316 µM): > 10 µM | IC50 (second compound 1 µM): > 10 µM | IC50 (second compound 3.16 µM): > 10 µM | IC50 (second compound 10 µM): > 10 µM | viability, T/C [1]: 79.6% | viability, T/C [2]: 85.9% | viability, T/C [3]: 94.7% | viability, T/C [4]: 86.4% | viability, T/C [5]: 77.2% | viability, T/C [6]: 70.5% | viability, T/C [7]: 81.1% | viability, T/C [8]: 69.3% | viability, T/C [9]: 85% | viability, T/C [10]: 94.8% | viability, T/C [11]: 74.8% | viability, T/C [12]: 76.1% | viability, T/C [13]: 90.8% | viability, T/C [14]: 76.2% | viability, T/C [15]: 79.8% | viability, T/C [16]: 91.1% | viability, T/C [17]: 70.3% | viability, T/C [18]: 67.8% | viability, T/C [19]: 95.5% | viability, T/C [20]: 82.4% | viability, T/C [21]: 76.3% | viability, T/C [22]: 78% | viability, T/C [23]: 87.6% | viability, T/C [24]: 69.6% | viability, T/C [25]: 68.8% | viability, T/C [26]: 82.8% | viability, T/C [27]: 80.4% | viability, T/C [28]: 101% | viability, T/C [29]: 77.3% | viability, T/C [30]: 66.4% | viability, T/C [31]: 79% | viability, T/C [32]: 80.4% | viability, T/C [33]: 81.7% | viability, T/C [34]: 79.8% | viability, T/C [35]: 75.8% | viability, T/C [36]: 68.3%
